Assay results published in ChEMBL document CHEMBL1165868, “Synthesis and antimicrobial activity of cholic acid hydrazone analogues” (2010).
In brackets after ≈: the same amount, converted by molar mass. Activity calls are given as the source filed them. No cut-off for these calls is given here.

Columns and labels:
Type in all cases: functional
Escherichia coli = experiment: Antimicrobial activity against Escherichia coli after 24 hrs
Klebsiella aerogenes = experiment: Antimicrobial activity against Enterobacter aerogenes after 24 hrs
Enterococcus faecalis = experiment: Antimicrobial activity against Enterococcus faecalis after 24 hrs
Priestia megaterium = experiment: Antimicrobial activity against Bacillus megaterium after 24 hrs
Staphylococcus aureus = experiment: Antimicrobial activity against Staphylococcus aureus after 24 hrs
Pseudomonas aeruginosa = experiment: Antimicrobial activity against Pseudomonas aeruginosa after 24 hrs

| Compound | MIC (Escherichia coli) | MIC (Klebsiella aerogenes) | MIC (Enterococcus faecalis) | MIC (Priestia megaterium) | MIC (Staphylococcus aureus) | MIC (Pseudomonas aeruginosa) |
| --- | --- | --- | --- | --- | --- | --- |
| C[C@H](CCC(=O)N/N=C/c1ccccc1O)[C@H]1CC[C@H]2[C@@H]3[C@H](O)C[C@@H]4C[C@H](O)CC[C@]4(C)[C@H]3C[C@H](O)[C@]12C | inactive | inactive | 7.82 µg/mL (≈ 14.8 µM) | 31.2 µg/mL (≈ 59.3 µM) | 31.2 µg/mL (≈ 59.3 µM) | inactive |
| C[C@H](CCC(=O)N/N=C/c1ccc(Cl)cc1)[C@H]1CC[C@H]2[C@@H]3[C@H](O)C[C@@H]4C[C@H](O)CC[C@]4(C)[C@H]3C[C@H](O)[C@]12C | 3.91 µg/mL (≈ 7.17 µM) | inactive | 1.96 µg/mL (≈ 3.6 µM) | 31.2 µg/mL (≈ 57.3 µM) | 62.5 µg/mL (≈ 115 µM) | inactive |
| C[C@H](CCC(=O)N/N=C/c1cc2ccccc2[nH]1)[C@H]1CC[C@H]2[C@@H]3[C@H](O)C[C@@H]4C[C@H](O)CC[C@]4(C)[C@H]3C[C@H](O)[C@]12C | inactive | inactive | 3.91 µg/mL (≈ 7.11 µM) | 15.6 µg/mL (≈ 28.4 µM) | 31.2 µg/mL (≈ 56.8 µM) | inactive |
| COc1ccc(OC)c(/C=N/NC(=O)CC[C@@H](C)[C@H]2CC[C@H]3[C@@H]4[C@H](O)C[C@@H]5C[C@H](O)CC[C@]5(C)[C@H]4C[C@H](O)[C@]23C)c1 | inactive | inactive | 15.6 µg/mL (≈ 27.4 µM) | 31.2 µg/mL (≈ 54.8 µM) | inactive | inactive |
| C=CC1=C(C(=O)O)N2C(=O)[C@@H](NC(=O)/C(=N\OCC(=O)O)c3csc(N)n3)[C@H]2SC1 [CEFIXIME] | 1.96 µg/mL (≈ 4.32 µM) | 31.2 µg/mL (≈ 68.9 µM) | 31.2 µg/mL (≈ 68.9 µM) | inactive | 31.2 µg/mL (≈ 68.9 µM) | 19.5 µg/mL (≈ 43.1 µM) |
| COc1ccc2[nH]cc(/C=N/NC(=O)CC[C@@H](C)[C@H]3CC[C@H]4[C@@H]5[C@H](O)C[C@@H]6C[C@H](O)CC[C@]6(C)[C@H]5C[C@H](O)[C@]34C)c2c1 | inactive | inactive | 31.2 µg/mL (≈ 53.9 µM) | inactive | inactive | inactive |
| COc1ccc(/C=N/NC(=O)CC[C@@H](C)[C@H]2CC[C@H]3[C@@H]4[C@H](O)C[C@@H]5C[C@H](O)CC[C@]5(C)[C@H]4C[C@H](O)[C@]23C)cc1 | 7.81 µg/mL (≈ 14.4 µM) | inactive | 15.6 µg/mL (≈ 28.9 µM) | 31.2 µg/mL (≈ 57.8 µM) | 62.5 µg/mL (≈ 116 µM) | inactive |
| N[C@@H](C(=O)N[C@@H]1C(=O)N2C(C(=O)O)=C(Cl)CS[C@H]12)c1ccccc1 [CEFACLOR ANHYDROUS] | inactive | 7.82 µg/mL (≈ 21.3 µM) | 31.2 µg/mL (≈ 85 µM) | 31.2 µg/mL (≈ 85 µM) | 31.2 µg/mL (≈ 85 µM) | inactive |
| COc1cccc(/C=N/NC(=O)CC[C@@H](C)[C@H]2CC[C@H]3[C@@H]4[C@H](O)C[C@@H]5C[C@H](O)CC[C@]5(C)[C@H]4C[C@H](O)[C@]23C)c1OC | 3.91 µg/mL (≈ 6.85 µM) | inactive | 15.6 µg/mL (≈ 27.4 µM) | 31.2 µg/mL (≈ 54.8 µM) | inactive | inactive |
| Cc1ccc(/C=N/NC(=O)CC[C@@H](C)[C@H]2CC[C@H]3[C@@H]4[C@H](O)C[C@@H]5C[C@H](O)CC[C@]5(C)[C@H]4C[C@H](O)[C@]23C)cc1 | 7.81 µg/mL (≈ 14.9 µM) | inactive | 7.82 µg/mL (≈ 14.9 µM) | inactive | 31.2 µg/mL (≈ 59.6 µM) | inactive |
| C[C@H](CCC(=O)N/N=C/c1ccc([N+](=O)[O-])cc1)[C@H]1CC[C@H]2[C@@H]3[C@H](O)C[C@@H]4C[C@H](O)CC[C@]4(C)[C@H]3C[C@H](O)[C@]12C | 7.81 µg/mL (≈ 14.1 µM) | inactive | 7.82 µg/mL (≈ 14.1 µM) | 31.2 µg/mL (≈ 56.2 µM) | 31.2 µg/mL (≈ 56.2 µM) | inactive |
| C[C@H](CCC(=O)N/N=C/c1ccc(C#N)cc1)[C@H]1CC[C@H]2[C@@H]3[C@H](O)C[C@@H]4C[C@H](O)CC[C@]4(C)[C@H]3C[C@H](O)[C@]12C | 7.81 µg/mL (≈ 14.6 µM) | inactive | 15.6 µg/mL (≈ 29.2 µM) | 31.2 µg/mL (≈ 58.3 µM) | 31.2 µg/mL (≈ 58.3 µM) | inactive |
| C[C@H](CCC(=O)N/N=C/c1ccc(Cl)c([N+](=O)[O-])c1)[C@H]1CC[C@H]2[C@@H]3[C@H](O)C[C@@H]4C[C@H](O)CC[C@]4(C)[C@H]3C[C@H](O)[C@]12C | 7.81 µg/mL (≈ 13.2 µM) | inactive | 3.91 µg/mL (≈ 6.63 µM) | 31.2 µg/mL (≈ 53 µM) | 31.2 µg/mL (≈ 53 µM) | inactive |

Further lines, results first:

| MIC (Escherichia coli) | MIC (Klebsiella aerogenes) | MIC (Enterococcus faecalis) | MIC (Priestia megaterium) | MIC (Staphylococcus aureus) | MIC (Pseudomonas aeruginosa) | Compound |
| --- | --- | --- | --- | --- | --- | --- |
| inactive | inactive | inactive | 31.2 µg/mL (≈ 62.5 µM) | inactive | inactive | C[C@H](CCC(=O)N/N=C/c1ccc[nH]1)[C@H]1CC[C@H]2[C@@H]3[C@H](O)C[C@@H]4C[C@H](O)CC[C@]4(C)[C@H]3C[C@H](O)[C@]12C |
| inactive | inactive | 31.2 µg/mL (≈ 60.5 µM) | 15.6 µg/mL (≈ 30.2 µM) | 62.5 µg/mL (≈ 121 µM) | inactive | C[C@H](CCC(=O)N/N=C/c1cccs1)[C@H]1CC[C@H]2[C@@H]3[C@H](O)C[C@@H]4C[C@H](O)CC[C@]4(C)[C@H]3C[C@H](O)[C@]12C |
| 7.81 µg/mL (≈ 15.3 µM) | inactive | inactive | 31.2 µg/mL (≈ 61.1 µM) | inactive | inactive | C[C@H](CCC(=O)N/N=C/c1ccccn1)[C@H]1CC[C@H]2[C@@H]3[C@H](O)C[C@@H]4C[C@H](O)CC[C@]4(C)[C@H]3C[C@H](O)[C@]12C |
| inactive | inactive | inactive | 31.2 µg/mL (≈ 62.4 µM) | inactive | inactive | C[C@H](CCC(=O)N/N=C/c1ccco1)[C@H]1CC[C@H]2[C@@H]3[C@H](O)C[C@@H]4C[C@H](O)CC[C@]4(C)[C@H]3C[C@H](O)[C@]12C |
| 3.91 µg/mL (≈ 7.66 µM) | inactive | 15.6 µg/mL (≈ 30.6 µM) | 31.2 µg/mL (≈ 61.2 µM) | 62.5 µg/mL (≈ 122 µM) | inactive | C[C@H](CCC(=O)N/N=C/c1ccccc1)[C@H]1CC[C@H]2[C@@H]3[C@H](O)C[C@@H]4C[C@H](O)CC[C@]4(C)[C@H]3C[C@H](O)[C@]12C |
| 7.81 µg/mL (≈ 13.2 µM) | inactive | 1.96 µg/mL (≈ 3.32 µM) | 31.2 µg/mL (≈ 53 µM) | inactive | inactive | C[C@H](CCC(=O)N/N=C/c1ccccc1Br)[C@H]1CC[C@H]2[C@@H]3[C@H](O)C[C@@H]4C[C@H](O)CC[C@]4(C)[C@H]3C[C@H](O)[C@]12C |
| 7.81 µg/mL (≈ 19.1 µM) | inactive | 31.2 µg/mL (≈ 76.5 µM) | inactive | inactive | 15.6 µg/mL (≈ 38.3 µM) | C[C@H](CCC(=O)O)[C@H]1CC[C@H]2[C@@H]3[C@H](O)C[C@@H]4C[C@H](O)CC[C@]4(C)[C@H]3C[C@H](O)[C@]12C [CHOLIC ACID] |
| 3.91 µg/mL (≈ 7.17 µM) | inactive | 1.96 µg/mL (≈ 3.6 µM) | 31.2 µg/mL (≈ 57.3 µM) | 31.2 µg/mL (≈ 57.3 µM) | inactive | C[C@H](CCC(=O)N/N=C/c1cccc(Cl)c1)[C@H]1CC[C@H]2[C@@H]3[C@H](O)C[C@@H]4C[C@H](O)CC[C@]4(C)[C@H]3C[C@H](O)[C@]12C |
| 3.91 µg/mL (≈ 6.63 µM) | inactive | 3.91 µg/mL (≈ 6.63 µM) | 7.82 µg/mL (≈ 13.3 µM) | 62.5 µg/mL (≈ 106 µM) | inactive | C[C@H](CCC(=O)N/N=C/c1ccc(Br)cc1)[C@H]1CC[C@H]2[C@@H]3[C@H](O)C[C@@H]4C[C@H](O)CC[C@]4(C)[C@H]3C[C@H](O)[C@]12C |
| inactive | inactive | 31.2 µg/mL (≈ 73.9 µM) | 31.2 µg/mL (≈ 73.9 µM) | inactive | inactive | C[C@H](CCC(=O)NN)[C@H]1CC[C@H]2[C@@H]3[C@H](O)C[C@@H]4C[C@H](O)CC[C@]4(C)[C@H]3C[C@H](O)[C@]12C [CHOLYLHYDRAZIDE] |
| inactive | inactive | 62.5 µg/mL (≈ 118 µM) | 31.2 µg/mL (≈ 59.1 µM) | 31.2 µg/mL (≈ 59.1 µM) | inactive | C[C@H](CCC(=O)N/N=C/c1ccc(F)cc1)[C@H]1CC[C@H]2[C@@H]3[C@H](O)C[C@@H]4C[C@H](O)CC[C@]4(C)[C@H]3C[C@H](O)[C@]12C |
